Laboratory results reported in ChEMBL document CHEMBL5550100, “Discovery of LHF418 as a new potent SOS1 PROTAC degrader” (Bioorg Med Chem, 2024).
The source made the active and inactive calls. No cut-off for these calls is given here.

Experiments:
[1] = target: T1, Protein cereblon/Son of sevenless homolog 1 (Homo sapiens, UniProt Q07889+Q96SW2); assay: PROTAC activity at CRBN/SOS1 in human A549 cells assessed as protein degradation at 0.1 uM incubated for 24 hrs by immunoblot analysis relative to control; type: cell-based
[2] = target: T1, Protein cereblon/Son of sevenless homolog 1; assay: PROTAC activity at CRBN/SOS1 in human A549 cells assessed as protein degradation at 10 uM incubated for 24 hrs by immunoblot analysis relative to control; type: cell-based
[3] = target: T1, Protein cereblon/Son of sevenless homolog 1; assay: PROTAC activity at 6His-tagged human CRBN TBD domain (318 to 425 residues) expressed in Escherichia coli BL21(DE3)/GST-tagged recombinant human SOS1 (569 to 1049 residues) expressed in Escherichia coli BL21(DE3) protein-protein interaction assessed as ternary complex formation incubated for 1 hr by AlphaScreen assay
[4] = target: T1, Protein cereblon/Son of sevenless homolog 1; assay: PROTAC activity at CRBN/SOS1 in human A549 cells assessed as protein degradation incubated for 24 hrs by immunoblot analysis; type: cell-based
[5] = target: T1, Protein cereblon/Son of sevenless homolog 1; assay: PROTAC activity at CRBN/SOS1 in human A549 cells assessed as protein degradation upto 10000 nM incubated for 24 hrs by immunoblot analysis relative to control; type: cell-based
[6] = target: T1, Protein cereblon/Son of sevenless homolog 1; assay: PROTAC activity at CRBN/SOS1 in human A549 cells assessed as protein degradation at 3 uM incubated for 24 to 72 hrs by immunoblot analysis; type: cell-based; conditions: time 24-72 hrs
[7] = target: T1, Protein cereblon/Son of sevenless homolog 1; assay: PROTAC activity at CRBN/SOS1 in human A549 cells assessed as half life of SOS1 at 3 uM by immunoblot analysis; type: cell-based
[8] = target: Protein cereblon/Son of sevenless homolog 1 (Homo sapiens, UniProt Q07889+Q96SW2, G12D); assay: PROTAC activity at CRBN/SOS1 in human HPAF-II cells harboring KRAS G12D mutant assessed as protein degradation by immunoblot analysis; type: cell-based
[9] = target: Protein cereblon/Son of sevenless homolog 1 (Homo sapiens, UniProt Q07889+Q96SW2, G12C); assay: PROTAC activity at CRBN/SOS1 in human MIA PaCa-2 cells harboring KRAS G12C mutant assessed as protein degradation by immunoblot analysis; type: cell-based
[10] = target: T1, Protein cereblon/Son of sevenless homolog 1; assay: PROTAC activity at CRBN/SOS1 in human A549 cells assessed as protein degradation at 3 uM by immunoblot analysis; type: cell-based; conditions: time <= 72.0 hrs, TDE = time-dependent effect
[11] = target: T1, Protein cereblon/Son of sevenless homolog 1; assay: PROTAC activity at CRBN/SOS1 in BI3406-pretreated human A549 cells assessed as protein degradation at 1 uM incubated for 24 hrs by immunoblot analysis; type: cell-based
[12] = target: T1, Protein cereblon/Son of sevenless homolog 1; assay: PROTAC activity at CRBN/SOS1 in lenalidomide-pretreated human A549 cells assessed as protein degradation at 1 uM incubated for 24 hrs by immunoblot analysis; type: cell-based
[13] = target: T1, Protein cereblon/Son of sevenless homolog 1; assay: PROTAC activity at CRBN/SOS1 in MG-132-pretreated human A549 cells assessed as protein degradation at 1 uM incubated for 24 hrs by immunoblot analysis; type: cell-based
[14] = target: T1, Protein cereblon/Son of sevenless homolog 1; assay: PROTAC activity at CRBN/SOS1 in MLN-4924-pretreated human A549 cells assessed as protein degradation at 1 uM incubated for 24 hrs by immunoblot analysis; type: cell-based
[15] = target: T1, Protein cereblon/Son of sevenless homolog 1; assay: PROTAC activity at CRBN/SOS1 in bafilomycin-pretreated human A549 cells assessed as protein degradation at 1 uM incubated for 24 hrs by immunoblot analysis; type: cell-based
[16] = target: T1, Protein cereblon/Son of sevenless homolog 1; assay: PROTAC activity at CRBN/SOS1 in CHX-pretreated human A549 cells assessed as protein degradation at 3 uM incubated for 12 hrs by immunoblot analysis; type: cell-based
A549 [17] = assay: Effect on SOS2 in human A549 cells upto 10000 nM incubated for 24 hrs by immunoblot analysis; type: functional, cell-based
A549 [18] = assay: Effect on GSPT1 in human A549 cells upto 10000 nM incubated for 24 hrs by immunoblot analysis; type: functional, cell-based
[19] = target: GTPase KRas (Homo sapiens) (UniProt P01116); assay: Inhibition of KRAS signalling in serum-starved human A549 cells assessed as decrease in ERK1/2 phosphorylation upto 10000 nM preincubated for 24 hrs followed by EGF stimulation for 1 hr by immunoblot analysis; type: cell-based; conditions: time 25.0 hrs
MIA PaCa-2 = assay: Inhibition of colony formation in human MIA PaCa-2 cells upto 30 uM incubated for 14 days by crystal violet staining based analysis; type: functional, cell-based; conditions: time 14.0 day

COc1cc2nc(C)nc(N[C@H](C)c3cc(N)cc(C(F)(F)F)c3)c2cc1O[C@H]1CCN(C(=O)CCCCCCCC(=O)Nc2cccc3c2CN(C2CCC(=O)NC2=O)C3=O)C1 (stereo partly specified)
Activity [1]: 68%
Activity [2]: 69%
Activity [3]: Active
DC50 [4]: 0.209 µM
Activity ([4]; dose <= 10000.0 µM): Dose-Dependent Effect
Emax [5]: > 80%
Activity [6]: Active
T1/2 [7]: 22.5 h
DC50 [8]: 0.354 µM
DC50 [9]: 0.54 µM
Activity [10]: Tde
Activity [11]: inactive
Activity [12]: inactive
Activity [13]: inactive
Activity [14]: inactive
Activity [15]: Active
Activity [16]: Active
Activity (A549 [17]): inactive
Activity (A549 [18]): inactive
inhibition [19]: Active
inhibition (MIA PaCa-2): Active
